Experiments:
Type in all cases: cell-based
Aeromonas hydrophila 292 = test: IO staining of colonies of beta-D-galactosidase positive/negative bacteria (Table IVb); details: Aeromonas hydrophila strain 292, b-gal +; 24 h on Nutrient Agar, 150 mg/l indicator, 100 mg/l IPTG; for G: Growth of colonies: key: −: absent; +/−: weak; +: strong; ++: very strong
[1] = tested on: Klebsiella pneumoniae 164; test: as above; details: Klebsiella pneumoniae strain 164, b-gal +; 24 h on Nutrient Agar, 150 mg/l indicator, 100 mg/l IPTG; for C: Color of colonies: key: −: absent; +/−: weak; +: strong; ++: very strong; for G: Growth of colonies: key: −: absent; +/−: weak; +: strong; ++: very strong
Escherichia coli 270 = test: as above; details: Escherichia coli strain 270, b-gal +; 24 h on Nutrient Agar, 150 mg/l indicator, 100 mg/l IPTG; for C: Color of colonies: key: −: absent; +/−: weak; +: strong; ++: very strong; for G: Growth of colonies: key: −: absent; +/−: weak; +: strong; ++: very strong
[2] = tested on: Staphylococcus intermedius 31; test: as above; details: Staphylococcus intermedius strain 31, b-gal +; 24 h on Nutrient Agar, 150 mg/l indicator, 100 mg/l IPTG
[3] = tested on: Pseudomonas aeruginosa 168; test: as above; details: Pseudomonas aeruginosa strain 168, b-gal −, 24 h on Nutrient Agar, 150 mg/l indicator, 100 mg/l IPTG; for C: Color of colonies: key: −: absent; +/−: weak; +: strong; ++: very strong; for G: Growth of colonies: key: −: absent; +/−: weak; +: strong; ++: very strong
[4] = tested on: Listeria monocytogenes (4b) 290; test: as above; details: Listeria monocytogenes (4b) strain 290, b-gal −; 24 h on Nutrient Agar, 150 mg/l indicator, 100 mg/l IPTG; for C: Color of colonies: key: −: absent; +/−: weak; +: strong; ++: very strong; for F: Fluorescence of colonies: key: −: absent; +/−: weak; +: strong; ++: very strong
Salmonella bongori 81 = test: as above; details: Salmonella bongori strain 81, b-gal +; 24 h on Nutrient Agar, 150 mg/l indicator, 100 mg/l IPTG; for C: Color of colonies: key: −: absent; +/−: weak/variable; +: strong; for G: Growth of colonies: key: −: absent; +/−: weak; +: strong; ++: very strong
Shigella boydii 135 = test: as above; details: Shigella boydii strain 135, b-gal −; 24 h on Nutrient Agar, 150 mg/l indicator, 100 mg/l IPTG; note: key: −: absent; +/−: weak; +: strong; ++: very strong
[5] = tested on: Streptococcus agalactiae 195; test: as above; details: Streptococcus agalactiae strain 195, b-gal −; 24 h on Nutrient Agar, 150 mg/l indicator, 100 mg/l IPTG; for C: Color of colonies: key: −: absent; +/−: weak; +: strong; ++: very strong; for F: Fluorescence of colonies: key: −: absent; +/−: weak; +: strong; ++: very strong
Escherichia coli 61 = test: as above; details: Escherichia coli strain 61, b-gal +; 24 h on Nutrient Agar, 150 mg/l indicator, 100 mg/l IPTG; for C: Color of colonies: key: −: absent; +/−: weak; +: strong; ++: very strong; for G: Growth of colonies: key: −: absent; +/−: weak; +: strong; ++: very strong
Shigella sonnei 133 = test: as above; details: Shigella sonnei strain 133, b-gal +/−; 24 h on Nutrient Agar, 150 mg/l indicator, 100 mg/l IPTG; for C: Color of colonies: key: −: absent; +/−: weak; +: strong; ++: very strong; for G: Growth of colonies: key: −: absent; +/−: weak; +: strong; ++: very strong
Escherichia coli = test: IN and IO staining of bacterial colonies under anaerobic conditions
Description: Nutrient Agar plates containing 150 mg/l of various substrates and 100 mg/l IPTG were inoculated with Escherichia coli. Plates were put in an anaerobic jar (Anaerojar, Oxoid), an AnaeroGen sachet (Oxoid) was added, the jar was closed and incubated for 24 hours at 37° C.
IN staining cannot be used under anaerobic conditions.

[6] = tested on: Salmonella enteritidis 43; test: IO staining of colonies of beta-D-galactosidase positive/negative bacteria (Table IVb); details: Salmonella enteritidis strain 43, b-gal −; 24 h on Nutrient Agar, 150 mg/l indicator, 100 mg/l IPTG; note: key: −: absent; +/−: weak; +: strong; ++: very strong
[7] = tested on: Escherichia coli (O157:H7) 60; test: as above; details: Escherichia coli (O157:H7) strain 60, b-gal +; 24 h on Nutrient Agar, 150 mg/l indicator, 100 mg/l IPTG
Bacillus subtilis 65 = test: as above; details: Bacillus subtilis strain 65, b-gal −; 24 h on Nutrient Agar, 150 mg/l indicator, 100 mg/l IPTG; for C: Color of colonies: key: −: absent; +/−: weak; +: strong; ++: very strong; for F: Fluorescence of colonies: key: −: absent; +/−: weak; +: strong; ++: very strong
[8] = tested on: Shigella dysenteriae Serovar 1 131; test: as above; details: Shigella dysenteriae Serovar 1 strain 131, b-gal +/−; 24 h on Nutrient Agar, 150 mg/l indicator, 100 mg/l IPTG
Salmonella illa 73 = test: as above; details: Salmonella illa strain 73, b-gal +; 24 h on Nutrient Agar, 150 mg/l indicator, 100 mg/l IPTG; note: key: −: absent; +/−: weak; +: strong; ++: very strong
[9] = tested on: Yersinia enterocolitica 175; test: as above; details: Yersinia enterocolitica strain 175, b-gal +/−; 24 h on Nutrient Agar, 150 mg/l indicator, 100 mg/l IPTG; for G: Growth of colonies: key: −: absent; +/−: weak; +: strong; ++: very strong
Enterobacter cloacae 245 = test: as above; details: Enterobacter cloacae strain 245, b-gal +; 24 h on Nutrient Agar, 150 mg/l indicator, 100 mg/l IPTG; for C: Color of colonies: key: −: absent; +/−: weak; +: strong; ++: very strong; for G: Growth of colonies: key: −: absent; +/−: weak; +: strong; ++: very strong
Staphylococcus aureus 2 = test: as above; details: Staphylococcus aureus strain 2, b-gal −, 24 h on Nutrient Agar, 150 mg/l indicator, 100 mg/l IPTG; for F: Fluorescence of colonies: key: −: absent; +/−: weak; +: strong; ++: very strong
[10] = tested on: Staphylococcus saprophyticus 273; test: as above; details: Staphylococcus saprophyticus strain 273, b-gal +; 24 h on Nutrient Agar, 150 mg/l indicator, 100 mg/l IPTG; for G: Growth of colonies: key: −: absent; +/−: weak; +: strong; ++: very strong
Serratia marcescens 40 = test: as above; details: Serratia marcescens strain 40, b-gal +; 24 h on Nutrient Agar, 150 mg/l indicator, 100 mg/l IPTG; for G: Growth of colonies: key: −: absent; +/−: weak; +: strong; ++: very strong
[11] = tested on: Enterobacter aerogenes 242; test: as above; details: Enterobacter aerogenes strain 242, b-gal +; 24 h on Nutrient Agar, 150 mg/l indicator, 100 mg/l IPTG; for C: Color of colonies: key: −: absent; +/−: weak; +: strong; ++: very strong; for G: Growth of colonies: key: −: absent; +/−: weak; +: strong; ++: very strong
Citrobacter freundii 181 = test: as above; details: Citrobacter freundii strain 181, b-gal +; 24 h on Nutrient Agar, 150 mg/l indicator, 100 mg/l IPTG; for C: Color of colonies: key: −: absent; +/−: weak; +: strong; ++: very strong; for G: Growth of colonies: key: −: absent; +/−: weak; +: strong; ++: very strong
[12] = Nutrient Agar plates, anaerobically incubated with E. coli

O=C(c1ccccc1)c1ccccc1-n1cc(O[C@@H]2O[C@H](CO)[C@H](O)[C@H](O)[C@H]2O)c2c(Cl)c(Br)ccc21 [Indicator I22a, 1-(2-Benzoylphenyl)-5-bromo-4-chloro-1H-indol-3-yl-beta-D-galactopyranoside]
++: L: Localization on colonies (Escherichia coli; [12])
−: C: Color of colonies [2] | F: Fluorescence of colonies [2] | G: Growth of colonies [2] | C: Color of colonies [3] | C: Color of colonies [4] | F: Fluorescence of colonies [4] | G: Growth of colonies [4] | F: Fluorescence of colonies (Salmonella bongori 81) | C: Color of colonies (Shigella boydii 135) | F: Fluorescence of colonies (Shigella boydii 135) | C: Color of colonies [5] | F: Fluorescence of colonies [5] | G: Growth of colonies [5] | D: Diffusion around colonies (Escherichia coli; [12]) | C: Color of colonies [6] | F: Fluorescence of colonies [6] | C: Color of colonies (Bacillus subtilis 65) | F: Fluorescence of colonies (Bacillus subtilis 65) | G: Growth of colonies (Bacillus subtilis 65) | C: Color of colonies [8] | F: Fluorescence of colonies [8] | C: Color of colonies (Salmonella illa 73) | F: Fluorescence of colonies (Salmonella illa 73) | C: Color of colonies [9] | F: Fluorescence of colonies [9] | F: Fluorescence of colonies (Staphylococcus aureus 2) | G: Growth of colonies (Staphylococcus aureus 2) | C: Color of colonies (Staphylococcus aureus 2; footnote 2: S. aureus natural color) | C: Color of colonies [10] | F: Fluorescence of colonies [10] | G: Growth of colonies [10]
o-r: C: Color of colonies (Escherichia coli; [12])
+/−: C: Color of colonies (Aeromonas hydrophila 292) | F: Fluorescence of colonies (Aeromonas hydrophila 292) | F: Fluorescence of colonies [1] | F: Fluorescence of colonies (Escherichia coli 270) | C: Color of colonies (Salmonella bongori 81) | F: Fluorescence of colonies (Escherichia coli 61) | F: Fluorescence of colonies (Shigella sonnei 133) | F: Fluorescence of colonies [7] | F: Fluorescence of colonies (Enterobacter cloacae 245) | F: Fluorescence of colonies (Serratia marcescens 40) | F: Fluorescence of colonies [11] | F: Fluorescence of colonies (Citrobacter freundii 181)
+: G: Growth of colonies (Aeromonas hydrophila 292) | C: Color of colonies [1] | G: Growth of colonies [1] | C: Color of colonies (Escherichia coli 270) | G: Growth of colonies (Escherichia coli 270) | G: Growth of colonies [3] | G: Growth of colonies (Salmonella bongori 81) | G: Growth of colonies (Shigella boydii 135) | C: Color of colonies (Escherichia coli 61) | G: Growth of colonies (Escherichia coli 61) | C: Color of colonies (Shigella sonnei 133) | G: Growth of colonies (Shigella sonnei 133) | G: Growth of colonies (Escherichia coli; [12]) | I: Intensity of color (Escherichia coli; [12]) | G: Growth of colonies [6] | C: Color of colonies [7] | G: Growth of colonies [7] | G: Growth of colonies [8] | G: Growth of colonies (Salmonella illa 73) | G: Growth of colonies [9] | C: Color of colonies (Enterobacter cloacae 245) | G: Growth of colonies (Enterobacter cloacae 245) | C: Color of colonies (Serratia marcescens 40) | G: Growth of colonies (Serratia marcescens 40) | C: Color of colonies [11] | G: Growth of colonies [11] | C: Color of colonies (Citrobacter freundii 181) | G: Growth of colonies (Citrobacter freundii 181)
+^1: F: Fluorescence of colonies ([3]; footnote 1: blue autofluorescence)
perfect localization: Localization of stain under anaerobic conditions (Escherichia coli; E. coli, anaerobic, 24 hours at 37° C.)
0.5 mm: S: Size of colonies (Escherichia coli; [12])
